System: Sprague-Dawley rats
Assay: Phenotypic and functional indicia of immunosuppression in treated rats
Format: in vivo
Conditions: e.g. influenza and lymphocytic coriomeningitis virus

With `CC(C)C[C@H](N)CS` [leucinethiol] the “resistance to viral challenge” value was “reduced”.
